{"source": "patent US5817690A", "about": "“4-aminoethoxy indolone derivatives” (American Home Products Corporation, priority 1997, dated 1998)"}
{"molecular_target": "T1, dopamine D-2 receptor (D2 Spiper) (Rattus norvegicus, UniProt P61169)", "T1 construct": "homogenized limbic brain tissue is incubated with; from tissue; host or cells: limbic brain tissue homogenate", "T1 sequence (P61169 whole entry)": "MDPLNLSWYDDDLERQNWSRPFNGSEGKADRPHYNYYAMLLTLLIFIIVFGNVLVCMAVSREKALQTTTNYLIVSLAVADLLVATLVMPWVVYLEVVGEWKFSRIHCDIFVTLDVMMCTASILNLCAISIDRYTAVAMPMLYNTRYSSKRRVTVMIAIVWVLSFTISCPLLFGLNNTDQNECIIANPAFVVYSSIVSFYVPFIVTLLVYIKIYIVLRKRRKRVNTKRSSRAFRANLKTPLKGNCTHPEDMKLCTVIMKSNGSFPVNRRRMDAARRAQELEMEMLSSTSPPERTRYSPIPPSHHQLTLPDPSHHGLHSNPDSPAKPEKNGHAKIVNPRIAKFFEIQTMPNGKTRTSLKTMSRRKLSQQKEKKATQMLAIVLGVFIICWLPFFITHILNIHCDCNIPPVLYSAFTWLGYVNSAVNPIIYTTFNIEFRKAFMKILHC", "assay": "3H-spiroperidol (Spiper.) binding in homogenized limbic brain tissue, affinity for the dopamine D-2 receptor", "units": {"IC50": "nM"}, "method": "High affinity for the dopamine D-2 receptor was established by the standard experimental test procedure of Fields, et al., Brain Res., 136, 578 (1977) and Yamamura et al., eds., Neurotransmitter Receptor Binding, Raven Press, New York (1978) wherein homogenized limbic brain tissue is incubated with ^3 H-spiroperidol (Spiper.) and various concentrations of test compound, filtered and washed and shaken with Hydrofluor scintillation cocktail (National Diagnostics) and counted in a Packard 460 CD scintillation counter."}
{"smiles": "O=C1Cc2c(cccc2OCCNCc2ccccc2)N1", "note": "[Example 1, 4-(2-Benzylaminoethoxy)-1,3-dihydro-indol-2-one]", "IC50": 145}
{"smiles": "CNCCOc1cccc2c1CC(=O)N2", "note": "[Example 2, 4-(2-Methylamino-ethoxy)-1,3-dihydro-indol-2-one]", "IC50": 918}
{"smiles": "NCCOc1cccc2c1CC(=O)N2", "note": "[Example 3, 4-(2-Amino-ethoxy)-1,3-dihydro-indol-2-one]", "IC50": 3420}
{"smiles": "O=C1Cc2c(OCCNCc3ccc(F)cc3)ccc(Cl)c2N1", "note": "[Example 4]", "IC50": 176}
{"smiles": "O=C1Cc2c(OCCNCc3ccc(Cl)cc3)ccc(Cl)c2N1", "note": "[Example 5]", "IC50": 51.9}
{"smiles": "Cc1ccc(CNCCOc2ccc(Cl)c3c2CC(=O)N3)cc1", "note": "[Example 6]", "IC50": 37.5}
{"smiles": "CN(CCOc1ccc(Cl)c2c1CC(=O)N2)Cc1ccccc1", "note": "[Example 7, 4-[2-(N-Benzyl-N-methyl-amino)-ethoxy]-7-chloro-1,3dihydro-indol-2-one]", "IC50": 231}
{"smiles": "CCCCNCCOc1ccc(Cl)c2c1CC(=O)N2", "note": "[Example 8, 4-(2-Butylamino-ethoxy)-7-chloro-1,3-dihydro-indol-2-one]", "IC50": 144}
{"smiles": "O=C1Cc2c(OCCN3CCc4ccccc4C3)ccc(Cl)c2N1", "note": "[Example 9, 7-Chloro-4-[2-(3,4-dihydro-1H-isoguinolin-2-yl)-ethoxy]-1,3-dihydro-indol-2-one]", "IC50": 81.4}
{"smiles": "O=C1Cc2c(cccc2OCCNCCCCc2ccccc2)N1", "note": "[Example 13]", "IC50": 25}
{"smiles": "O=C1Cc2c(OCCNCc3ccccc3)ccc(Cl)c2N1", "note": "[Example 14, 4-(2-Benzylamino-ethoxy)-7-chloro-1,3-dihydro-indol-2-one]", "IC50": 36}
{"smiles": "O=C1Cc2c(OCCNCc3ccccc3)ccc(F)c2N1", "note": "[Example 15, 4-(2-Benzylamino-ethoxy)-7-fluoro-1,3-dihydro-indol-2-one]", "IC50": 68.7}
{"smiles": "O=C1Cc2c(OCCNCC3CCCCC3)ccc(F)c2N1", "note": "[Example 16, 4-[2-(Cyclohexylmethyl-amino)-ethoxy)-7-fluoro-1,3-dihydro-indol-2one]", "IC50": 99.4}
{"smiles": "CN(CCOc1cccc2c1CC(=O)N2)Cc1ccccc1", "note": "[Example 25, 4-[2-(Benzyl-methyl-amino)-ethoxy]-1,3-dihydro-indol-2-one]", "IC50": 645}
{"smiles": "CN(CCCC(=O)c1ccc(F)cc1)CCOc1cccc2c1CC(=O)N2", "note": "[Example 27, 4-(2-{[4-(4-Fluoro-phenyl)-4-oxo-butyl]-methyl-amino}-ethoxy)-1,3-dihydro-indol-2-one]", "IC50": 346}
